Assay results published in ChEMBL document CHEMBL1201862, “PubChem BioAssay data set” (2004).
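Compound exposure: 48 hours, 5 concentrations, 96-well plates. At the GI50, growth is halved.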 Activity calls are given as the source filed them. Rule as the data show it: active = GI50 up to about 1.1 µM and inactive = higher.

Experiments:
Experiment in all cases: growth of human tumour cells (NCI), 48 h
CCRF-CEM = test system: CCRF-CEM
EKVX = test system: EKVX
HT-29 = test system: HT-29
IGROV-1 = test system: IGROV-1
K562 = test system: K562
MOLT-4 = test system: MOLT-4
NCI-H522 = test system: NCI-H522
OVCAR-5 = test system: OVCAR-5
SF-295 = test system: SF-295
SF-539 = test system: SF-539
SNB-75 = test system: SNB-75
SW-620 = test system: SW-620
U-251 = test system: U-251
UACC-257 = test system: UACC-257
LOX IMVI = test system: LOX IMVI
RXF 393 = test system: RXF 393
MCF7 = test system: MCF7
NCI/ADR-RES = test system: NCI/ADR-RES
PC-3 = test system: PC-3

Measured: GI50

Cc1cc(N(CCC#N)CCC#N)ccc1/C=C1\N=C(c2cc([N+](=O)[O-])ccc2Cl)N(c2cccc(Cl)c2)C1=O
active: SW-620 < 0.01 µM
inactive: CCRF-CEM 71.6 µM | EKVX 23.8 µM | HT-29 45.2 µM | IGROV-1 > 100 µM | K562 96.6 µM | MOLT-4 79.6 µM | NCI-H522 58.6 µM | OVCAR-5 > 100 µM | SF-295 > 100 µM | SF-539 > 100 µM | SNB-75 > 100 µM | U-251 > 100 µM | UACC-257 > 100 µM

O=c1cc(-c2ccccc2)oc2cc(OCCSCCCCCCCCCCSCCOc3ccc4c(=O)cc(-c5ccccc5)oc4c3)ccc12
inactive: CCRF-CEM > 100 µM | EKVX > 100 µM | HT-29 > 100 µM | IGROV-1 > 100 µM | K562 > 100 µM | LOX IMVI > 100 µM | MOLT-4 > 100 µM | NCI-H522 94.2 µM | RXF 393 37.2 µM | SF-295 > 100 µM | SNB-75 > 100 µM | SW-620 > 100 µM | U-251 > 100 µM | UACC-257 > 100 µM

O=C(O)c1[nH]c(C(=O)O)c(CC(F)(F)C(F)(F)C(F)(F)F)c1CC(F)(F)C(F)(F)C(F)(F)F
inactive: CCRF-CEM > 100 µM | EKVX > 100 µM | HT-29 > 100 µM | IGROV-1 > 100 µM | K562 > 100 µM | LOX IMVI > 100 µM | NCI-H522 > 100 µM | OVCAR-5 > 100 µM | RXF 393 > 100 µM | SF-295 > 100 µM | SF-539 > 100 µM | SNB-75 > 100 µM | SW-620 > 100 µM | U-251 > 100 µM | UACC-257 > 100 µM

CNC(=O)NCCCC(NC(C)=O)C(=O)NCc1ccccc1 (configuration not stated)
inactive: CCRF-CEM > 100 µM | EKVX > 100 µM | HT-29 > 100 µM | IGROV-1 > 100 µM | K562 > 100 µM | LOX IMVI > 100 µM | MOLT-4 > 100 µM | NCI-H522 > 100 µM | OVCAR-5 > 100 µM | RXF 393 > 100 µM | SF-295 > 100 µM | SF-539 > 100 µM | SNB-75 42.2 µM | SW-620 > 100 µM | U-251 > 100 µM | UACC-257 > 100 µM

O=C1/C(=C\c2ccccc2)C2/C(=C\c3ccccc3)C(=O)/C(=C\c3ccccc3)C2/C1=C\c1ccccc1 (configuration not stated)
inactive: EKVX 3.89 µM | HT-29 1.34 µM | IGROV-1 2.01 µM | OVCAR-5 1.41 µM | RXF 393 1.53 µM | SF-295 2.07 µM | SF-539 2.35 µM | SNB-75 17.3 µM | SW-620 1.55 µM | U-251 1.17 µM | UACC-257 1.79 µM
active: CCRF-CEM 0.34 µM | K562 0.565 µM | LOX IMVI 0.316 µM | MOLT-4 0.437 µM | NCI-H522 0.592 µM

CCOC(=O)CCn1ncc(Cl)c(Cl)c1=O
inactive: CCRF-CEM 2.9 µM | EKVX 18.7 µM | HT-29 4.24 µM | IGROV-1 11.1 µM | K562 2.79 µM | LOX IMVI 8.53 µM | MOLT-4 3.13 µM | OVCAR-5 16.7 µM | RXF 393 11.4 µM | SF-295 19.5 µM | SF-539 13.9 µM | SNB-75 14.8 µM | SW-620 3.31 µM | U-251 5.89 µM | UACC-257 11.2 µM
active: NCI-H522 0.291 µM

COc1ccc(/C=c2/sc3n(c2=O)NC(c2ccc(Cl)cc2)NN=3)cc1 (configuration not stated)
inactive: CCRF-CEM > 100 µM | EKVX > 100 µM | HT-29 > 100 µM | IGROV-1 > 100 µM | K562 > 100 µM | LOX IMVI > 100 µM | MOLT-4 > 100 µM | NCI-H522 > 100 µM | OVCAR-5 > 100 µM | RXF 393 > 100 µM | SF-295 > 100 µM | SF-539 > 100 µM | SNB-75 23.1 µM | SW-620 > 100 µM | U-251 > 100 µM

CCCCCC(=O)Cc1cc(OC)cc2c1C(=O)Oc1cc(O)c(C(=O)O)c(CC(=O)CCCCC)c1O2
inactive: CCRF-CEM 40.7 µM | EKVX 33.1 µM | HT-29 41.2 µM | IGROV-1 39.4 µM | K562 30.6 µM | LOX IMVI 77.8 µM | MOLT-4 27.2 µM | NCI-H522 46.3 µM | OVCAR-5 > 100 µM | SF-295 55.3 µM | SF-539 > 10 µM | SNB-75 55.7 µM | SW-620 > 100 µM | U-251 15.8 µM | UACC-257 71.4 µM

O=C(c1ccccc1)C1OC12C(=O)Nc1ccccc12 (configuration not stated)
inactive: CCRF-CEM 5.68 µM | EKVX 47.6 µM | HT-29 19.7 µM | IGROV-1 47.6 µM | K562 4.5 µM | LOX IMVI 45 µM | MOLT-4 8.15 µM | NCI-H522 13.3 µM | OVCAR-5 > 100 µM | RXF 393 20.9 µM | SF-295 27 µM | SF-539 23.7 µM | SNB-75 15.2 µM | SW-620 21.4 µM | UACC-257 35.7 µM

C=C1CCCCCCCCCCC1[S+]([O-])c1ccccc1 (configuration not stated)
inactive: EKVX > 100 µM | HT-29 40.3 µM | IGROV-1 16 µM | K562 33.8 µM | LOX IMVI 28.8 µM | MCF7 30.1 µM | MOLT-4 21.8 µM | NCI/ADR-RES 34.4 µM | OVCAR-5 49.8 µM | PC-3 31.5 µM | RXF 393 26.5 µM | SF-295 42 µM | SF-539 21 µM | U-251 21 µM | UACC-257 47.1 µM

CSc1nnc2n1-c1ccccc1SCC2
inactive: CCRF-CEM > 100 µM | EKVX > 100 µM | HT-29 > 100 µM | IGROV-1 > 100 µM | K562 > 100 µM | LOX IMVI > 100 µM | MOLT-4 > 100 µM | NCI-H522 > 100 µM | RXF 393 > 100 µM | SF-295 > 100 µM | SF-539 > 100 µM | SNB-75 > 100 µM | SW-620 > 100 µM | U-251 > 100 µM | UACC-257 > 100 µM

COc1cc2cc[n+]3c4cc(OC)c(OC)cc4c(C)cc3c2cc1OC
inactive: CCRF-CEM > 100 µM | EKVX > 100 µM | HT-29 > 100 µM | IGROV-1 > 100 µM | K562 > 100 µM | LOX IMVI > 100 µM | MOLT-4 > 100 µM | NCI-H522 > 100 µM | OVCAR-5 > 100 µM | SF-295 > 100 µM | SF-539 > 100 µM | SNB-75 44.7 µM | SW-620 > 100 µM | U-251 70 µM | UACC-257 88.7 µM

COc1nc(/C=N/NC(N)=S)nc(OC)n1
inactive: EKVX > 100 µM | HT-29 76 µM | IGROV-1 > 100 µM | K562 > 100 µM | MOLT-4 56.8 µM | NCI-H522 75.5 µM | OVCAR-5 > 100 µM | RXF 393 > 100 µM | SF-295 42.3 µM | SF-539 32.4 µM | SNB-75 32.7 µM | SW-620 > 100 µM | U-251 54.8 µM | UACC-257 > 100 µM

CCCCCCCCCCCCCP(=O)(O)OCC
inactive: CCRF-CEM > 100 µM | EKVX > 100 µM | HT-29 > 100 µM | IGROV-1 > 100 µM | LOX IMVI > 100 µM | NCI-H522 > 100 µM | OVCAR-5 > 100 µM | RXF 393 > 100 µM | SF-295 > 100 µM | SF-539 > 100 µM | SNB-75 > 100 µM | SW-620 > 100 µM | U-251 > 100 µM | UACC-257 > 100 µM

CC1(C)OC2C(O1)[C@H]1OC(C(Cl)(Cl)Cl)=N[C@H]1C(I)[C@H]2N1C(=O)c2ccccc2C1=O (some centres not stated)
inactive: CCRF-CEM 41.4 µM | EKVX 79.3 µM | HT-29 59.4 µM | IGROV-1 25.5 µM | K562 36.7 µM | LOX IMVI 51.2 µM | MOLT-4 26.1 µM | NCI-H522 24.5 µM | OVCAR-5 > 100 µM | RXF 393 28.9 µM | SF-295 56.4 µM | SF-539 > 100 µM | SNB-75 56.9 µM | SW-620 > 100 µM | U-251 84.9 µM | UACC-257 36.1 µM

NCCCC1NC(=O)/C(=C(O)/C=C/C2CCC[C@@H]2CC2SCCS2)C1=O (some centres not stated)
inactive: CCRF-CEM 54.1 µM | EKVX > 100 µM | HT-29 > 100 µM | IGROV-1 > 100 µM | K562 31.2 µM | LOX IMVI > 100 µM | MOLT-4 43.4 µM | NCI-H522 29 µM | OVCAR-5 > 100 µM | RXF 393 > 100 µM | SF-295 > 100 µM | SF-539 > 100 µM | SNB-75 > 100 µM | SW-620 57 µM | U-251 > 100 µM | UACC-257 76.9 µM

c1ccc2c(CNCCCCCCCCNCc3cccc4ccccc34)cccc2c1
active: K562 0.679 µM
inactive: CCRF-CEM 1.85 µM | EKVX 6.03 µM | HT-29 1.8 µM | IGROV-1 4.55 µM | LOX IMVI 1.23 µM | MOLT-4 2.02 µM | NCI-H522 1.79 µM | OVCAR-5 2 µM | RXF 393 1.74 µM | SF-295 1.88 µM | SF-539 1.63 µM | SNB-75 1.9 µM | SW-620 1.8 µM | U-251 1.72 µM | UACC-257 1.87 µM

C1=Cc2nc1c(-c1ccccc1)c1nc(c(-c3ccccc3)c3ccc([nH]3)c(-c3ccccc3)c3ccc([nH]3)c2-c2ccccc2)C=C1 [TETRAPHENYLPORPHYRIN]
inactive: CCRF-CEM > 100 µM | EKVX > 100 µM | HT-29 > 100 µM | IGROV-1 > 100 µM | K562 > 100 µM | LOX IMVI > 100 µM | MOLT-4 > 100 µM | NCI-H522 > 100 µM | OVCAR-5 > 100 µM | SF-295 > 100 µM | SF-539 > 100 µM | SNB-75 > 100 µM | SW-620 > 100 µM | U-251 > 100 µM | UACC-257 > 100 µM
